{"source": "patent EP0494777A1", "about": "“(S)-11-Hydroxy-10-methyl aporphine and pharmaceutical compositions containing it” (BRITISH TECHNOLOGY GROUP LTD, priority 1991, dated 1992)", "key": {"guinea pig ileum": {"target": "T1, guinea pig ileum (Cavia porcellus, UniProt A0A286Y074)", "T1 sequence (A0A286Y074 1-421)": "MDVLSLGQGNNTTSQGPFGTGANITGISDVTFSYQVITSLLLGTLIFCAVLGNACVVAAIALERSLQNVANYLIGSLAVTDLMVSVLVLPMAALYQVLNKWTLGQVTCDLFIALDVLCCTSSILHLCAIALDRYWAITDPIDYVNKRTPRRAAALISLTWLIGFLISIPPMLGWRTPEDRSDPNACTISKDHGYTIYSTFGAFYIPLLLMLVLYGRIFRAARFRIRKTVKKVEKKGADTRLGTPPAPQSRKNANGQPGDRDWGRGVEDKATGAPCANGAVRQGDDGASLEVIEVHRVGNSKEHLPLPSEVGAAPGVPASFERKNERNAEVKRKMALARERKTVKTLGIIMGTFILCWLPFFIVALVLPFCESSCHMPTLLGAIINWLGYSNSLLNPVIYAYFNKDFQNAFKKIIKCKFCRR", "assay": "Single shock stimulation of guinea pig ileum: inhibition of longitudinal muscle contractions, or antagonism of the inhibitory action of 8-OH DPAT", "conditions": "for washings needed to return responses to induced electrical stimulation to control levels: after inhibition of contractions", "procedure": "Guinea pigs were anaesthetized with 35 mg of pentobarbital Na, administered i.p. and then sacrificed. Two centimeters of ileum, 10 cm from the cecum, was placed in Krebs-Ringer solution, and longitudinal muscle contractions were measured using a Stateham GT-03 force transducer. Contractions were recorded using a Beckman R-611 recorder."}, "5-HT1A sites": {"target": "T2, 5-HT1A sites (Rattus norvegicus, UniProt P19327)", "T2 construct": "5% (w/v) homogenized rat cortex; from tissue; host or cells: rat cortex membranes", "T2 sequence (P19327 1-422)": "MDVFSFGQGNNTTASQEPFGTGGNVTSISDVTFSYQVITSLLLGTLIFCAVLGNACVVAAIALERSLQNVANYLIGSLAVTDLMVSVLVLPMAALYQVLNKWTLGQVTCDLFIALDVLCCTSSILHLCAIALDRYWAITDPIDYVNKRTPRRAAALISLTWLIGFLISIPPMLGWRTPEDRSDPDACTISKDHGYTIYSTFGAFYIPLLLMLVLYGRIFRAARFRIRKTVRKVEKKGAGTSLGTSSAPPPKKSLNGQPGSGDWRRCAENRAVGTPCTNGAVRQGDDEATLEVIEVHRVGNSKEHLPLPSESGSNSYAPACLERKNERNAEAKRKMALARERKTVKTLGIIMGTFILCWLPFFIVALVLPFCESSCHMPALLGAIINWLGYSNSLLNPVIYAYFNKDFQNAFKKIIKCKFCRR", "assay": "Radioligand binding vs. [³H]8-OH DPAT in rat cortex membranes", "procedure": "Binding studies to determine the affinity of both the (R) and (S) enantiomer for 5-HT1A sites were conducted as previously described by Cannon et al., ibid. Rat cortex was homogenized in ice cold solution, centrifuged to isolate the membranes, and then washed. […] Non-specific binding was defined as binding remaining in the presence of 10 µM of 5-HT. […] The results are presented below in the Table together with those obtained in the studies using guinea pig ilea."}}}
{"smiles": "CN1C2CCC1CC(OC(=O)C(CO)c1ccccc1)C2", "note": "(racemic) [atropine sulphate, reference compound]", "values": [{"measurement": "effect on contractions induced by transmural single shock stimulation", "setting": "guinea pig ileum", "result": "inhibited"}]}
{"smiles": "CCCN(CCC)C1CCc2cccc(O)c2C1", "note": "(stereo not drawn) [8-OH DPAT, 8-hydroxy-2-di-n-propylaminotetralin, reference compound]", "values": [{"measurement": "washings needed to return responses to induced electrical stimulation to control levels", "setting": "guinea pig ileum", "result": "Two or three"}, {"measurement": "inhibition at 0.06 µM", "setting": "guinea pig ileum; read-out: maximal inhibition of contractions induced by transmural stimulation", "result": "~35", "unit": "%"}]}
{"smiles": "Cc1ccc2c(c1O)-c1cccc3c1[C@@H](C2)N(C)CC3", "note": "[(R), (R)-11-hydroxy-10-methylaporphine, reference compound]", "values": [{"measurement": "Ki", "setting": "5-HT1A sites", "result": 0.0031, "unit": "µM"}, {"measurement": "washings needed to return responses to induced electrical stimulation to control levels", "setting": "guinea pig ileum", "result": "Two or three"}, {"measurement": "EC50", "setting": "guinea pig ileum; read-out: Single Shock stimulation of guinea pig ileum ED50 for inhibition of contractions, transmural single shock stimulation (0.1 Hz)", "result": 0.05, "unit": "µM"}, {"measurement": "ED50 for antagonism of inhibition of contraction by 8-OH DPAT", "setting": "guinea pig ileum; single shock stimulation of guinea pig ileum, concentration of 8-OH-DPAT 0.06 μM", "result": "inactive"}]}
{"smiles": "Cc1ccc2c(c1O)-c1cccc3c1[C@H](C2)N(C)CC3.Cl", "note": "[(S), (S)-11-Hydroxy-10-methylaporphine hydrochloride]", "values": [{"measurement": "Ki", "setting": "5-HT1A sites", "result": 0.039, "unit": "µM"}, {"measurement": "effect on ileum stimulating properties of nicotine", "setting": "guinea pig ileum; 1 µM", "result": "did not alter"}, {"measurement": "effect on ileum stimulating properties of potassium chloride", "setting": "guinea pig ileum; 1 µM", "result": "did not alter"}, {"measurement": "effect on resting tone of the ileum", "setting": "guinea pig ileum; 1 µM", "result": "did not alter"}, {"measurement": "IC50", "setting": "guinea pig ileum; read-out: ED50 for antagonism of inhibition of contraction by 8-OH DPAT, single shock stimulation of guinea pig ileum, concentration of 8-OH-DPAT 0.06 μM", "result": 0.03, "unit": "µM"}, {"measurement": "antagonism of inhibition of contractions by the (R)-enantiomer", "setting": "guinea pig ileum; single shock stimulation of cholinergic neurons", "result": "antagonized"}, {"measurement": "Single Shock stimulation of guinea pig ileum ED50 for inhibition of contractions", "setting": "guinea pig ileum; transmural single shock stimulation (0.1 Hz)", "result": "inactive"}, {"measurement": "duration of repeated washings required to re-establish sensitivity of the preparation to the (R)-enantiomer or 8-OH DPAT", "setting": "guinea pig ileum; washout", "result": "2 to 3", "unit": "h"}]}
